In this test the test system is KB cells. Kind of test: EGFR driven KB cell proliferation assay, Test (b). In kind it is cell-based. The note with it: Homo sapiens, 96 h, EGF 1 ng/ml, 4 days, MTT. How it is done:
This assay measures the ability of a test compound to inhibit the proliferation of KB cells (human naso-pharangeal carcinoma obtained from the American Type Culture Collection (ATCC).
KB cells (human naso-pharangeal carcinoma obtained from the ATCC were cultured in Dulbecco's modified Eagle's medium (DMEM) containing 10% foetal calf serum, 2 mM glutamine and non-essential amino acids at 37° C. in a 7.5% CO2 air incubator. Cells were harvested from the stock flasks using Trypsin/ethylaminediaminetetraacetic acid (EDTA). Cell density was measured using a haemocytometer and viability was calculated using trypan blue solution before being seeded at a density of 1.25×10^3 cells per well of a 96 well plate in DMEM containing 2.5% charcoal stripped serum, 1 mM glutamine and non-essential amino acids at 37° C. in 7.5% CO2 and allowed to settle for 4 hours.
Following adhesion to the plate, the cells are treated with or without EGF (final concentration of 1 ng/ml) and with or without compound at a range of concentrations in dimethylsulfoxide (DMSO) (0.1% fial) before incubation for 4 days. Following the incubation period, cell numbers were determined by addition of 50 μl of 3-(4,5-Dimethylthiazol-2-yl)-2,5-diphenyltetrazolium bromide (MTT) (stock 5 mg/ml) for 2 hours. MTT solution was then tipped off, the plate gently tapped dry and the cells dissolved upon the addition of 100 μl of DMSO.
Absorbance of the solubilised cells was read at 540 nm using a Molecular Devices ThermoMax microplate reader. Inhibition of proliferation was expressed as an IC50 value. This was determined by calculation of the concentration of compound that was required to give 50% inhibition of proliferation. The range of proliferation was calculated from the positive (vehicle plus EGF) and negative (vehicle minus EGF) control values.

What is called IC50 is the concentration at which inhibition is half-maximal. Low readings indicate inhibition by little substance, high ones a need for much substance.

`COc1cc2ncnc(Nc3cccc(Cl)c3F)c2cc1O[C@H]1C[C@H](C(=O)N[C@H]2COC[C@@H]2O)N(C)C1` [Compound 11-14, (4S)-4-({4-[(3-chloro-2-fluorophenyl)amino]-7-methoxyquinazolin-6-yl}oxy)-N-[(3S,4R)-4-hydroxytetrahydrofuran-3-yl]-1-methyl-D-prolinamide]: the IC50 was found to be 139 nM. The result for `COc1cc2ncnc(Nc3cccc(Cl)c3F)c2cc1O[C@H]1C[C@H](C(=O)NCCNC(C)=O)N(C)C1` [Compound 11-13, (4S)—N-[2-(acetylamino)ethyl]-4-({4-[(3-chloro-2-fluorophenyl)amino]-7-methoxyquinazolin-6-yl}oxy)-1-methyl-D-prolinamide] reads 144 nM. The result for `COc1cc2ncnc(Nc3cccc(Cl)c3F)c2cc1O[C@@H]1C[C@@H](C(=O)NCCC#N)N(C)C1` [Compound 13-3] reads 63 nM.

These data come from US20070043010A1, “Quinazoline derivatives” (ASTRAZENECA UK LIMITED, priority 2003, published 2007).
